Measurements reported in US7238689B2, “Isoxazoline derivative and herbicide comprising the same as active ingredient” (Ihara Chemical Industry Co., Ltd., priority 2001, dated 2007).

Experiments:
Format in all cases: in vivo
Parameters in all cases: scale not given here
[1] = test system: Echinochloa oryzicola Vasing; experiment: Herbicidal effect by paddy field soil treatment; conditions: wettable powder, active ingredient 1000 g/ha, examined at the 21st day from the treatment
How it was run: (§1)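 Seeds sown in puddled paddy soil under 3 cm of water; the next day wettable powders diluted in water were dropped onto the water surface at 1,000 g active ingredient/ha. Plants grown in a greenhouse, with herbicidal effect scored on day 21 against a rating standard.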

[2] = test system: Monochoria vaginalis (Murm. f.) Presl var. plantaginea (Roxb.) Solms-Laub.; experiment: Herbicidal effect by paddy field soil treatment; conditions: wettable powder, active ingredient 1000 g/ha, examined at the 21st day from the treatment
How it was run: as §1

[3] = test system: Setaria viridis (L.) Beauv.; experiment: Herbicidal effect by upland foliage treatment; conditions: active ingredient 1000 g/ha, examined at 14th day from treatment
Protocol: (§2) A sand was filled in a plastic pot of 80 cm^2. Seeds of Echinochloa crus-galli (L.) Beauv. var. crus-galli and Setaria viridis (L.) Beauv. were sowed. Breeding was made in a greenhouse for 2 weeks. Wettable powders produced in accordance with the Formulation 1 were diluted with water and sprayed on the whole foliage of plants from above the plants using a small sprayer in an amount of 1,000 liters per 1 hectare so that the amount of each active ingredient became 1,000 g per 1 hectare. Then, breeding was made in the greenhouse, and the herbicidal effect of each wettable powder was examined at the 14th day from the treatment in accordance with the standard shown in Table 21.

[4] = test system: Echinochloa crus-galli (L.) Beauv. var. crus-galli; experiment: Herbicidal effect by upland foliage treatment; conditions: active ingredient 1000 g/ha, examined at 14th day from treatment
Protocol: as §2

[5] = test system: Echinochloa crus-galli (L.) Beauv. var. crusgalli; experiment: Herbicidal effect by upland field soil treatment; conditions: active ingredient 1000 g/ha, examined at 21st day from treatment
Excerpt: (§3) An upland field soil was filled in a plastic pot of 80 cm^2. Seeds of Echinochloa crus-galli (L.) Beauv. var. crusgalli and Setaria viridis (L.) Beauv. were sowed, followed by covering with the same soil. […] Then, breeding was made in a greenhouse, and the herbicidal effect of each wettable powder was examined at the 21st day from the treatment in accordance with the standard shown in Table 21.

[6] = test system: Setaria viridis (L.) Beauv.; experiment: Herbicidal effect by upland field soil treatment; conditions: active ingredient 1000 g/ha, examined at 21st day from treatment
Excerpt: as §3

Compound	Herbicidal effect index, Echinochloa oryzicola Vasing [1]	Herbicidal effect index, Monochoria vaginalis (Burm. F.) Presl var. plantaginea (Roxb.) Solms-Laub. [2]	herbicidal effect (index per standard of Table 21), Setaria viridis (L.) Beauv. [3]	herbicidal effect (index per standard of Table 21), Echinochloa curs-galli (L.) Beauv. Var. crus-galli [4]	herbicidal effect (index per standard of Table 21), Echinochloa curs-galli (L.) Beauv. Var. crus-galli [5]	herbicidal effect (index per standard of Table 21), Setaria viridis (L.) Beauv. [6]
COC(=O)c1c(Cl)sc(Cl)c1CS(=O)(=O)C1=NOC(C)(C)C1 [2-0011]	5	5	4	5	5	4
COc1c(CS(=O)(=O)C2=NOC(C)(C)C2)c(C)cc[n+]1[O-] [7-0009]	5	5	4	4	5	5
C=CCn1nc(Cl)c(CS(=O)(=O)C2=NOC(C)(C)C2)c1C(F)(F)F [3-0105]			4	5		
CCCCn1nc(Cl)c(CS(=O)(=O)C2=NOC(C)(C)C2)c1C(F)(F)F [3-0086]	5	5	4	4	5	5
CCOc1c(CS(=O)(=O)C2=NOC(C)(C)C2)c(C(F)(F)F)nn1C [3-0044]	5	5	4	5	5	5
C#CCn1nc(C(F)(F)F)c(CS(=O)(=O)C2=NOC(C)(C)C2)c1Cl [3-0106]			4	5		
CC1(C)CC(S(=O)(=O)Cc2c(C(F)(F)F)nn(CC3CC3)c2Cl)=NO1 [3-0092]			4	4		
CC(C)n1nc(Cl)c(CS(=O)(=O)C2=NOC(C)(C)C2)c1C(F)(F)F [3-0076]			4	5		
Cc1nn(C)c(C)c1CS(=O)(=O)C1=NOC(C)(C)C1 [3-0036]			4	4	5	5
C#CCn1nc(Cl)c(CS(=O)(=O)C2=NOC(C)(C)C2)c1C(F)(F)F [3-0107]			5	5		
C=CCn1nc(C(F)(F)F)c(CS(=O)(=O)C2=NOC(C)(C)C2)c1Cl [3-0104]			4	5		
CC1(C)CC(S(=O)(=O)Cc2oc3ccccc3c2Br)=NO1 [10-0014]	5	5			5	5
CC1(C)CC(S(=O)(=O)Cn2nnc3ccccc32)=NO1 [10-0004]	5	5			5	5
CCCn1nc(C(F)(F)F)c(CS(=O)(=O)C2=NOC(C)(C)C2)c1Cl [3-0077]			4	5		
CC1(C)CC(S(=O)(=O)Cc2c(Cl)nn(Cc3ccccc3)c2C(F)(F)F)=NO1 [3-0088]	5	5			5	4
Cn1ncc2c(CS(=O)(=O)C3=NOC(C)(C)C3)cccc21 [10-0005]	5	5			5	5
COCCn1nc(C(F)(F)F)c(CS(=O)(=O)C2=NOC(C)(C)C2)c1Cl [3-0124]	5	5			5	5
CC1(C)CC(S(=O)(=O)Cc2c(C(F)(F)F)nn(Cc3ccccc3)c2Cl)=NO1 [3-0087]	5	5			5	5
CC1(C)CC(S(=O)(=O)Cc2c(C(F)(F)F)nn(CC(F)F)c2Cl)=NO1 [3-0114]	5	5			5	5
CC1(C)CC(S(=O)(=O)Cc2ccc(Cl)s2)=NO1 [1-0005]	5	5			5	5
CNC(=O)c1c(Cl)sc(Cl)c1CS(=O)(=O)C1=NOC(C)(C)C1 [2-0012]	5	5			5	5
CC1(C)CC(S(=O)(=O)Cc2c(C(F)(F)F)n[nH]c2Cl)=NO1 [3-0034]	5	5			5	5
CC1(C)CC(S(=O)(=O)Cc2cc3ccccc3o2)=NO1 [10-0012]	5	5			5	4
Cn1nc(C(F)(F)F)c(CS(=O)(=O)C2=NOC(C)(C)C2)c1F [3-0041]	5	5			5	5
